# Results from PubChem BioAssay (NCI).
#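 In this assay, cells in 96-well plates receive the compound at five concentrations for 48 hours. Endpoints are linearly interpolated between the surrounding concentrations. TGI marks complete inhibition of growth.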
# Experiments:
# Assay in all cases: DTP human tumour cell line panel, 48 h
# [1] = test system: BT-549 breast
# [2] = test system: U251 CNS
# [3] = test system: SF-539 CNS
# [4] = test system: HCT-15 colon
# [5] = test system: SNB-75 CNS
# [6] = test system: T-47D breast
# [7] = test system: SW-620 colon
# [8] = test system: HS 578T breast
# [9] = test system: HCC-2998 colon
# [10] = test system: EKVX NSCLC
# [11] = test system: HOP-92 NSCLC
# [12] = test system: NCI-H23 lung
# [13] = test system: COLO 205 colon
# [14] = test system: IGROV1 ovarian
# [15] = test system: MALME-3M melanoma
# [16] = test system: ACHN renal
# [17] = test system: NCI/ADR-RES ovarian
# [18] = test system: M14 melanoma
# [19] = test system: SR leukemia
Compound,TGI [1],TGI [2],TGI [3],TGI [4],TGI [5],TGI [6],TGI [7],TGI [8],TGI [9],TGI [10],TGI [11],TGI [12],TGI [13],TGI [14],TGI [15],TGI [16],TGI [17],TGI [18],TGI [19]
Cc1ccc2c(c1)C(=O)C1(C2)Cc2c(C)cccc2C1=O (configuration not stated),> 100 µM,> 100 µM,> 100 µM,> 100 µM,> 100 µM,> 100 µM,> 100 µM,> 100 µM,> 100 µM,> 100 µM,> 100 µM,> 100 µM,> 100 µM,> 100 µM,> 100 µM,> 100 µM,> 100 µM,> 100 µM,> 100 µM
CC(C)C[C@H]1[C@@H](OCc2ccccc2)COS(=O)(=O)N1[C@H](C)c1ccccc1,> 100 µM,> 67.7 µM,> 100 µM,> 100 µM,> 100 µM,39.7 µM,> 100 µM,> 100 µM,> 100 µM,> 100 µM,> 100 µM,> 100 µM,> 100 µM,> 100 µM,> 100 µM,> 100 µM,> 100 µM,> 100 µM,> 83.7 µM
COC(=O)c1ccccc1/C=C1\Cc2c(C)c3c(c(C)c2C1=O)CCC3,> 100 µM,> 100 µM,> 100 µM,> 100 µM,> 100 µM,> 100 µM,> 100 µM,95.6 µM,> 100 µM,> 100 µM,> 100 µM,> 100 µM,> 100 µM,> 100 µM,> 100 µM,> 100 µM,> 100 µM,> 100 µM,> 100 µM
O=C(CSc1ncccn1)N/N=C/c1ccccc1OCc1ccccc1,70.4 µM,81.7 µM,46 µM,65.1 µM,67.7 µM,70.7 µM,> 100 µM,95.3 µM,95.1 µM,83.1 µM,78.3 µM,> 100 µM,38.8 µM,> 100 µM,> 100 µM,> 100 µM,> 100 µM,> 100 µM,29.5 µM
CCN(CCCl)c1cc(CN(C)C)cc(NC(=O)c2ccc(C(=O)Nc3cc(CN(C)C)cc(N(CC)CCCl)c3)cc2)c1,0.683 µM,1.64 µM,0.815 µM,29.5 µM,0.506 µM,15.4 µM,1.92 µM,0.761 µM,0.311 µM,5.58 µM,0.662 µM,0.472 µM,0.551 µM,0.732 µM,0.88 µM,0.994 µM,> 100 µM,0.926 µM,18.1 µM
C=CCN1C(=O)/C(=C/c2ccc(Cl)cc2)N=C1SC/C=C/C,> 100 µM,84.8 µM,> 100 µM,> 100 µM,> 100 µM,> 100 µM,> 100 µM,> 100 µM,> 100 µM,> 100 µM,84.2 µM,> 100 µM,> 100 µM,> 100 µM,> 100 µM,> 100 µM,> 100 µM,> 100 µM,46.7 µM
O=C(CC(O)(C(F)(F)F)C(F)(F)F)C(c1ccccc1)C(O)(C(F)(F)F)C(F)(F)F (configuration not stated),> 100 µM,> 100 µM,94.1 µM,> 100 µM,27.2 µM,> 100 µM,> 100 µM,41.8 µM,> 100 µM,> 100 µM,13 µM,> 100 µM,> 100 µM,> 100 µM,> 100 µM,79.5 µM,> 100 µM,> 100 µM,> 100 µM
C[C@]12CC[C@H]3[C@@H](CCC4=CC(=O)CC[C@@H]43)[C@@H]1CC[C@]2(O)C(N)=O,> 100 µM,> 100 µM,> 100 µM,> 100 µM,> 100 µM,> 100 µM,> 100 µM,> 100 µM,> 100 µM,> 100 µM,> 100 µM,> 100 µM,> 100 µM,> 100 µM,> 100 µM,> 100 µM,> 100 µM,> 100 µM,> 100 µM
